From article PMC8622523, “New Diterpenoids from Mesona procumbens with Antiproliferative Activities Modulate Cell Cycle Arrest and Apoptosis in Human Leukemia Cancer Cells” (Pharmaceuticals, 2021)
Blank lines part the entries; values can stand above or below the compound they belong to.

How the values were obtained:
[1] = system: hepatoma; design: method as in PMID 30835539; conditions: read-out: anti-hepatoma IC50; cited from earlier work
[2] = system: human breast cancer cell line MCF-7; design: method as in PMID 15639346; conditions: cited from earlier work
[3] = system: HT29 (human colon carcinoma); experiment: Cytotoxicity assay (Cell Counting Kit-8), HT29; format: cell-based; conditions: 72 h of drug treatment, means ± SD of 3 independent experiments
Procedure: (§1) A549 (human lung carcinoma), Hep-3B (human liver carcinoma), PC-3 (human prostate carcinoma), HT29 (human colon carcinoma), U937 (human monoblastic leukemia), and RAW 264.7 cells were purchased from the Food Industry Research and Development Institute (Hsinchu, Taiwan) and cultured in 10% heat-inactivated fetal bovine serum (FBS) in DMEM or RPMI-1640. Cell viability was determined by using Cell Counting Kit-8 (CCK-8; Dojindo, Rockville, MD, USA) according to the manufacturer’s instructions. All experiments were performed in triplicate.

[4] = system: PC-3 (human prostate carcinoma); experiment: Cytotoxicity assay (Cell Counting Kit-8), PC-3; format: cell-based; conditions: 72 h of drug treatment, means ± SD of 3 independent experiments
Procedure: as §1

[5] = system: U937 (human monoblastic leukemia); experiment: Cytotoxicity assay (Cell Counting Kit-8), U937; format: cell-based; conditions: for IC50: 72 h of drug treatment, Cell Counting Kit-8, means ± SD of 3 independent experiments; for times less potent than 1 and 2: U937 cell lines, SAR comparison
Procedure: as §1

[6] = system: Hep-3B (human liver carcinoma); experiment: Cytotoxicity assay (Cell Counting Kit-8), Hep-3B; format: cell-based; conditions: 72 h of drug treatment, means ± SD of 3 independent experiments
Procedure: as §1

[7] = system: A549 (human lung carcinoma); experiment: Cytotoxicity assay (Cell Counting Kit-8), A549; format: cell-based; conditions: 72 h of drug treatment, means ± SD of 3 independent experiments
Procedure: as §1

[8] = system: U937 cells; experiment: Measurement of intracellular ROS generation (DCFDA); format: cell-based, human; conditions: for intracellular ROS levels compared to control: 5 µM mesonol A or 10 µM mesonol B, 30 min, DCFH-DA
Procedure: U937 cells were seeded onto 96-well microplates at a final concentration of 1 × 10^5 cells per well and treated with mesonol A or B (5 or 10 µM) for 30 min with or without pretreatment with N-acetylcysteine (NAC) (10 mM) for 1 h. The cells were stained with 2′,7′-dichlorofluorescin diacetate (DCFDA) Cellular Reactive Oxygen Species Detection Assay Kit (Abcam, Cambridge, UK) solution (20 µM) and then incubated at 37 °C for 30 min in the dark. Fluorescence measurements were performed with a fluorescence plate reader (Bio-Rad, Hercules, CA, USA) at Ex/Em = 485/535 nm in end point mode in the presence of compounds, medium, or buffer. All experiments were performed in triplicate.

[9] = system: U937 cells; experiment: Western blot analysis of cell cycle regulators and apoptosis-related proteins; format: cell-based, human
Procedure: Cells were lysed in RIPA buffer with phenylmethylsulfonyl fluoride (PMSF; Beyotime Biotechnology, Jiangsu, China). The protein concentration was determined using a Bio-Rad protein assay system (Bio-Rad, Hercules, CA, USA). Equivalent amounts of proteins were separated by SDS–PAGE and then transferred to polyvinylidene difluoride membranes (Bio-Rad). After blocking in TBS containing 5% nonfat milk, the membranes were incubated with primary antibodies (1:1000 dilution) at 4 °C for 12 h and then incubated with a horseradish peroxidase-conjugated secondary antibody (1:5000 dilution). Signals were detected on X-ray film using an ECL detection system (Pierce, Rockford, IL, USA). The relative protein levels were calculated based on β-actin as the loading control.

[10] = system: U937 cells; experiment: Cell cycle and sub-G1 analysis by flow cytometry (PI staining); format: cell-based, human; conditions: for time course cell cycle analysis: 5 μM mesonol A or 10 μM mesonol B, 3-24 h; for effect of NAC pretreatment on compound-induced cell cycle change (sub-G1 accumulation or G2/M arrest): 10 mM NAC for 1 h, then 5 µM mesonol A 12 h or 10 µM mesonol B 6 h
Procedure: U937 cells were treated with mesonols A (1) or B (2), dosage range: 0.625–10 µM, for the specified time period, fixed in ice-cold 70% ethanol in PBS, suspended in Krishan’s reagent (0.05 mg/mL propidium iodide (PI), 0.1% sodium citrate, 0.02 mg/mL ribonuclease A and 0.3% NP-40), and incubated on ice for 30 min. Data acquisition for 10,000 events was performed with an FACScan system (Becton Dickinson). The distribution of cells in the different phases of the cell cycle was analyzed from the DNA histograms using CELL Quest software. All experiments were performed in triplicate.

[11] = system: normal mouse RAW 264.7 macrophages; experiment: Cytotoxicity assay (Cell Counting Kit-8), RAW 264.7; format: cell-based; conditions: for IC50: RAW264.7, normal mouse macrophage cell line, 72 h of drug treatment, Cell Counting Kit-8; for toxicity against normal mouse RAW 264.7 macrophages compared with cancer cells: in words
Procedure: as §1

[12] = system: A549, Hep-3B, PC-3, HT29, and U937 cancer cells; experiment: Antiproliferative activity, panel of five cancer cell lines; format: cell-based; conditions: Homo sapiens, read-out: IC50 values, range over five cancer cell lines
Procedure: as §1

Compound: 4α-hydroxy-17,19-dinor-ent-kaurane-16-one
IC50 [1]: > 100 µM

Compound: CC1(C)CCC[C@]2(C)[C@@H]1CC[C@@]13C[C@@H](CC[C@H]12)[C@@](O)(CO)C3.CC1(C)CCC[C@]2(C)[C@@H]1CC[C@@]13C[C@@H](CC[C@H]12)[C@@](O)(CO)C3.O (single isomer, unassigned; ent-16) [ent-16β,17α-dihydroxykaurane]
cytotoxicity and apoptotic effects [2]: exhibit cytotoxicity and apoptotic effects

Compound: CCc1c2c(nc3ccc(OC(=O)N4CCC(N5CCCCC5)CC4)cc13)-c1cc3c(c(=O)n1C2)COC(=O)[C@]3(O)CC [CPT-11, reference compound]
IC50 [3]: 15.1 ± 0.48 µM | IC50 [4]: 31.03 ± 0.28 µM | IC50 [5]: 4.95 ± 0.43 µM | IC50 [6]: 23.2 ± 0.38 µM | IC50 [7]: 15.3 ± 0.42 µM

Continued, in another order:

IC50 [12]: 1.97 to 19.9 µM
Compound: CC1(C)CCCC2(C)C1CCC13CC(C(O)CC12)C(O)(CO)C3=O (stereo not drawn) [Compound 1, 12α,16β,17-trihydroxy-ent-kaur-15-one]
IC50 ([3]; Homo sapiens, HT-29, 72 h): 9.1 ± 0.38 µM | IC50 ([4]; Homo sapiens, 72 h): 12.5 ± 0.24 µM | intracellular ROS levels compared to control [8]: did not induce an increase in intracellular ROS levels | G2/M progression proteins cdc25c, cyclin B1, CDK1 ([9]; 5 µM, 12 h): decreases in the G2/M progression proteins cdc25c, cyclin B1, and CDK1 | p21 protein level ([9]; 5 µM, 12 h): significant increase in p21 protein | IC50 ([5]; Homo sapiens, U-937, 72 h): 2.66 ± 0.14 µM | time course cell cycle analysis [10]: time-dependent accumulation of cells arrested in the G2/M phase | effect on cell population at G2/M phase ([10]; 10 μM, 24 h): significant increase in the cell population at G2/M phase | effect of NAC pretreatment on compound-induced cell cycle change (sub-G1 accumulation or G2/M arrest) [10]: little to no effect | effect on percentage of sub-G1 population, dose response ([10]; 0.625-10 μM, 24 h, plateau at 5 μM): dose-dependently increased the percentage of the sub-G1 population | IC50 [11]: > 50 µM | toxicity against normal mouse RAW 264.7 macrophages compared with cancer cells [11]: less toxic against normal mouse RAW 264.7 macrophages | IC50 ([6]; Homo sapiens, Hep3B, 72 h): 12.1 ± 0.55 µM | IC50 ([7]; Homo sapiens, A549, 72 h): 17.4 ± 0.28 µM

IC50 [12]: 1.97 to 19.9 µM
Compound: CC1(C)CCCC2(C)C1CCC13CC(C(O)CC12)C(CO)C3=O (stereo not drawn) [Compound 2, 12α-hydroxy-16β-hydroxymethyl-ent-kaur-15-one]
IC50 ([3]; Homo sapiens, HT-29, 72 h): 2.78 ± 0.03 µM | IC50 ([4]; Homo sapiens, 72 h): 4.19 ± 0.31 µM | intracellular ROS levels compared to control [8]: significantly higher than those in control cells | intracellular ROS levels with NAC pretreatment ([8]; 10 mM NAC 1 h, then 10 µM mesonol B 30 min): could be blocked by pretreatment with NAC | PARP cleavage ([9]; 10 µM, 6 h): significantly cleaved and activated | antiapoptotic proteins (Bcl-2, Bcl-xL) ([9]; 10 µM, 6 h): decreases in antiapoptotic proteins, including Bcl-2 and Bcl-xL | caspase-9 and -3 activation (pro-caspase-9 and -3 protein levels) ([9]; 10 µM, 6 h): induced the activation of caspase-9 and -3 | proapoptosis-related proteins (Bax, cytochrome c, apaf-1) ([9]; 10 µM, 6 h): increases in proapoptosis-related proteins, including Bax, cytochrome c and apaf-1 | IC50 ([5]; Homo sapiens, U-937, 72 h): 1.97 ± 0.09 µM | time course cell cycle analysis [10]: did not cause an obvious accumulation of cells in any phase but significantly increased apoptotic cells in the sub-G1 population | sub-G1 population ([10]; 5 μM, 24 h): 6.33% | sub-G1 population ([10]; 10 μM, 24 h): 53.86% | effect of NAC pretreatment on compound-induced cell cycle change (sub-G1 accumulation or G2/M arrest) [10]: significantly suppressed | IC50 [11]: > 50 µM | toxicity against normal mouse RAW 264.7 macrophages compared with cancer cells [11]: less toxic against normal mouse RAW 264.7 macrophages | IC50 ([6]; Homo sapiens, Hep3B, 72 h): 7.06 ± 0.38 µM | IC50 ([7]; Homo sapiens, A549, 72 h): 7.39 ± 0.42 µM

IC50 [12]: 1.97 to 19.9 µM
Compound: CC1(C)CCCC2(C)C1CCC13CC(C(O)CC21)C(O)(CO)C3O (stereo not drawn) [Compound 3, 12α,15β,16β,17-tetrahydroxy-ent-kaurane]
IC50 ([3]; Homo sapiens, HT-29, 72 h): 14.2 ± 0.31 µM | IC50 ([4]; Homo sapiens, 72 h): 16.5 ± 0.55 µM | IC50 [5]: 6.73 ± 0.36 µM | times less potent than 1 and 2 [5]: 2–3 times | IC50 [11]: > 50 µM | IC50 ([6]; Homo sapiens, Hep3B, 72 h): 17.1 ± 0.73 µM | IC50 ([7]; Homo sapiens, A549, 72 h): 17.1 ± 0.36 µM

IC50 [12]: 1.97 to 19.9 µM
Compound: CC1(C)CCCC2(C)C1CCC13CC(C(O)CC21)C(O)(CCl)C3O (stereo not drawn) [Compound 4, 12α,15β,16β-trihydroxy-17-chloro-ent-kaurane]
IC50 ([3]; Homo sapiens, HT-29, 72 h): 12.6 ± 0.55 µM | IC50 ([4]; Homo sapiens, 72 h): 16 ± 0.21 µM | IC50 ([5]; Homo sapiens, U-937, 72 h): 8.25 ± 0.24 µM | times less potent than 1 and 2 [5]: 2–3 times | IC50 [11]: > 50 µM | IC50 ([6]; Homo sapiens, Hep3B, 72 h): 19.9 ± 0.73 µM | IC50 ([7]; Homo sapiens, A549, 72 h): 19.4 ± 0.38 µM
